# Measured values taken from patent publication US20120134978A1, “Cross-Linking of Superoxide Dismutase Monomers” (Brandeis University, priority 2009, published 2012).
# Entries after “also recorded” stand apart in the source; their conditions may differ.
# Legend:
# [1] = target: T1, wtSOD1 (Homo sapiens, UniProt P00441); assay: Cross-linking and western blots (SDS-PAGE) of SOD1; type: biochemical; settings: for SOD1 dimer formation by cross-linking (western blot): 1:1 or 1:3 molar ratio SOD1 to cross-linker, 1 hour, room temperature
# T1 construct: purchased Sigma-Aldrich (St. Louis, Mo.)
# T1 sequence (P00441 2-154 limits assumed): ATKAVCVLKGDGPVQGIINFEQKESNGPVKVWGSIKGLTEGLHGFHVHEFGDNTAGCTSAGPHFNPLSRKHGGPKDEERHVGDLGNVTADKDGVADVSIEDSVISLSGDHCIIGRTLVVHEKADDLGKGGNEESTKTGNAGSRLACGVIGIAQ
# [2] = target: T2, G93A SOD1 (Homo sapiens, UniProt P00441, G94A); assay: LC-FTMS of cross-linked SOD1 (stoichiometry of cross-linker binding); settings: 1:1 molar ratio
# T2 construct: made in house; host or cells: S. cerevisiae EGy118ΔSOD1, vector YEp-351
# T2 sequence (P00441 2-154 G94A limits assumed): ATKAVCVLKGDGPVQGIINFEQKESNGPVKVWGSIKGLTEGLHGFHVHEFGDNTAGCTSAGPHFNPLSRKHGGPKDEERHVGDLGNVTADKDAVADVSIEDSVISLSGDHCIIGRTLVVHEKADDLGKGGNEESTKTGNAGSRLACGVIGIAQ
# Method: G93A was cross-linked using DMTE or BMOE as previously described at a 1:1 molar ratio (5 μM:5 μM). After one hour, 3% acetonitrile and 1% formic acid was added to the sample and spun at 14,000 RPM for 10 minutes to pellet any precipitated protein. The cross-linked sample was placed in an autosampler and 1 μL of cross-linked sample was aspirated into either a Proxeon 1D HPLC or Eksigent 2D HPLC with the following gradient: 3-50% B for 30 minutes, 50-95% B for 7 minutes, 95% B for 5 minutes, 95-3% B for 1 minute, and 3% B for 15 minutes. Buffer A is HPLC water with 0.1% formic acid and buffer B is 100% acetonitrile, 0.1% formic acid. After liquid chromatography, the sample was ionized using nanospray ionization and analyzed using a […] Bruker Daltonics FTMS. The FTMS was controlled using Apex control software and source parameters were controlled using the Apollo II software. Spectra (monomeric and dimeric G93A) were collected using a skimmer 1 voltage of 35-40V, whereas funnel skimmer dissociation was used to fragment the cross-linked G93A by increasing skimmer one voltage 140 volts. LC-FTMS data of cross-linked and non-cross-linked G93A were analyzed using Data Analysis software (Bruker Daltonics). These experiments were repeated in triplicate. […]
# [3] = target: T3, G85R SOD1 (Homo sapiens, UniProt P00441, G86R); assay: Peptide sequencing using LC-FTMS (bottom-up analysis, site of cross-linking); type: binding; settings: 1:1 molar ratio, Glu-C digest
# T3 construct: made in house; host or cells: S. cerevisiae EGy118ΔSOD1, vector YEp-351
# T3 sequence (P00441 2-154 G86R limits assumed): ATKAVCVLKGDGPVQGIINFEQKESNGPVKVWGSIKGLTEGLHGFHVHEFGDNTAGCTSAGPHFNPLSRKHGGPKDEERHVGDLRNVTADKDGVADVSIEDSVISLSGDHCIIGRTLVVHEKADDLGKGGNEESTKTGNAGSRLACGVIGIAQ
# [4] = target: T3, G85R SOD1; assay: SOD1 activity assay (NBT gel based); type: biochemical; settings: ~42 μM G85R; for SOD1 activity on addition of the substance: excess copper, zinc or cross-linker
# Method: (§1) The DTME cross-linked samples were divided in half, where one half was incubated with 10 mM TCEP and one was not, then analyzed on a 12.5% polyacrylamide gel. The gel was stained using a solution containing 50 mM potassium phosphate, pH 7.8, 1 tablet NBT (10 mg/tablet), and 0.1 mg/mL riboflavin for 45 minutes in the dark. After the 45 minute incubation 1 μL/mL TEMED was added and the gel was exposed to light for 2 minutes. Superoxide radicals create insoluble blue formazon from NBT. SOD1 acitivity is seen as a colorless band since SOD1 scavenges the superoxide, thus inhibiting the blue color formation. Repeated in triplicate.
# [5] = target: T2, G93A SOD1; assay: SOD1 activity assay (NBT gel based); type: biochemical; settings: ~42 μM SOD1, 80 μM copper and zinc and/or 42 μM cross-linker
# Method: as §1
# [6] = target: T1, wtSOD1; assay: SOD1 activity assay (NBT gel based); type: biochemical; settings: ~42 μM SOD1, 80 μM copper and zinc and/or 42 μM cross-linker
# Method: as §1
# [7] = target: T1, wtSOD1; assay: MALDI-TOF MS of cross-linked SOD1; type: biochemical; settings: 1:1 molar ratio
# [8] = tested on: human; settings: LD50 values in human; cited from earlier work
# [9] = target: T2, G93A SOD1; assay: Thermofluorescence stability assay (SYPRO Orange); type: binding; settings: 10 μM G93A, 20 μM copper, 20 μM zinc
# [10] = target: T3, G85R SOD1; assay: Thermofluorescence stability assay (SYPRO Orange); type: binding; settings: 10 μM G85R, 20 μM copper, 20 μM zinc
molecule,measurement,setting,value
"O=C1C=CC(=O)N1CCOCCOCCN1C(=O)C=CC1=O [BM(PEG)2, 1,8-bis-Maleimidodiethyleneglycol]",SOD1 dimer formation by cross-linking (western blot),[1],resulted in the stabilization of SOD1 dimer
"O=C1C=CC(=O)N1CCCCN1C(=O)C=CC1=O [BMB, 1,4bismaleimidobutane]",SOD1 dimer formation by cross-linking (western blot),[1],resulted in the stabilization of SOD1 dimer
"O=C1C=CC(=O)N1CC(O)C(O)CN1C(=O)C=CC1=O (stereo not shown) [BMDB, 1,4-bismaleimidyl-2,3-dihydroxybutane]",SOD1 dimer formation by cross-linking (western blot),[1],resulted in the stabilization of SOD1 dimer
"O=C1C=CC(=O)N1CCN1C(=O)C=CC1=O [BMOE, bis(maleimido)ethane]",stoichiometry of cross-linker binding,[2],consistent with the molecular weight of G93A plus one cross-linker
same,"cross-reactivity with other SOD1 cysteine residues Cys6, Cys57 and Cys146",[3],relatively low
same,site of cross-linking,[3],mainly through Cys111
same,SOD1 activity on addition of the substance,[4],increases
same,SOD1 activity on addition of the substance,[5],unaffected
same,SOD1 activity on addition of the substance,[6],unchanged
"O=C1C=CC(=O)N1CCSSCCN1C(=O)C=CC1=O [DTME, Dithio-bismaleimidoethane]",state of cross-linked SOD1 dimer in presence of reducing agent (DTT),"[1]; 1:1 molar ratio, SDS PAGE with reducing agent",only monomer was observed; also recorded: returning the dimer to its monomeric form; also recorded: became a monomer in the presence of reducing agent
same,SOD1 dimer formation by cross-linking (western blot),[1],resulted in the stabilization of SOD1 dimer; also recorded: resulted in dimeric SOD1
same,dimer observed in MALDI-TOF spectra of cross-linked SOD1,[7],The majority of the species observed is dimeric wtSOD1
same,stoichiometry of cross-linker binding,[2],one equivalent of cross-linker produced one equivalent of dimer; also recorded: consistent with the molecular weight of G93A plus one cross-linker
same,"SOD1 activity in the presence of copper, zinc and cross-linker",[4]; 80 μM copper and zinc and 42 μM cross-linker,even larger increase in activity; also recorded: largest increase in activity
same,SOD1 activity on addition of the substance,[4],increases
"C=CS(=O)(=O)CCCCCCS(=O)(=O)C=C [HBVS, 1,6-Hexanol-bis-vinylsulfone]",SOD1 dimer formation by cross-linking (western blot),[1],did not result in formation of dimeric SOD1; also recorded: did not appear to cross-link SOD1
"O=C(CI)NCCNC(=O)CI [N,N′-ethylenebis-(iodoacetamide)]",LD50,[8],9 mg/kg
"O=C1C=CC(=O)N1CCN(CCN1C(=O)C=CC1=O)CCN1C(=O)C=CC1=O [TMEA, Tris[2-maleimidoethyl]-amione]",relative cross-linking efficiency (western blot),[1]; 1:1 or 1:3 cross-linker to protein,most efficient cross-linker
same,SOD1 dimer formation by cross-linking (western blot),[1],resulted in the stabilization of SOD1 dimer
NNc1ccccc1 [phenylhydrazine],LD50,[8],80 mg/kg
copper and zinc,effect of excess copper and zinc on stability,[9],no affect; also recorded: little effect
same,stabilization by excess copper and zinc alone,[10],~20 °C
same,SOD1 activity on addition of the substance,[4],increases
same,SOD1 activity on addition of the substance,[5],unaffected
same,SOD1 activity on addition of the substance,[6]; zinc,unaffected; also recorded: unchanged
